Laboratory results from patent US5552267A, “Solution for prolonged organ preservation” (priority 1994, dated 1996).
Entries after “also recorded” stand apart in the source; their conditions may differ. Where a SMILES comes first, the peptide text is derived from it.

Experiments:
[1] = tested on: heart; settings: in vivo; cited from earlier work
[2] = tested on: cardiac graft vasculature; assay: perfusion of donor grafts by microspheres, nitric oxide series; format: in vivo, rat; settings: 12 h preservation in LR
Procedure: Ten minutes after restoration of blood flow, 0.5 ml of 10 μm diameter microspheres (10^6 /ml) (E-Z Trac, Los Angeles, Calif.) was injected into the donor aortic root. Deposition of microspheres in ventricular tissue was assessed following alkaline hydrolysis, washing, and counting of microspheres as described^8, with results expressed as number of spheres per (40×) field per gram of ventricle. A minimum of ten fields were counted and the mean ±SEM is reported.

[3] = tested on: heart; assay: heterotopic rat cardiac transplant, nitric oxide series, graft survival/score; format: in vivo, rat (male Sprague-Dawley); settings: 12 h in LR
Excerpt: Male Sprague-Dawley rats (350 grams, Camm Research, Wayne, N.J.) were used, and harvest, preservation, and transplantation procedures performed as described^8. Preservation solutions included lactated Ringer's (LR) solution (Baxter, Edison, N.J.), or LR supplemented with nitroglycerin (DuPont, Wilmington, Del.), sodium nitroprusside (Roche Laboratories, Nutley, N.J.), N^G -monomethyl-L-arginine (L-NMMA; Chembiochem, Salt Lake City, Utah), L-arginine (Sigma Chemical Co., St. Louis, Mo.), or 8-bromoguanosine3',5'monophosphate (8-Br-cGMP; Sigma). Components were combined within 4 hrs of donor cardiectomy, and preservation solutions were kept at 4° C. All of these solutions were at the pH of LR (6.6). University of Wisconsin solution (UW) was purchased from Dupont. […] Ten minutes after removal of the cross-clamp, an electrocardiogram was taken (Grass Polygraph, Quincy, Mass.) and the heart was judged by the same blinded investigators throughout based on the presence/absence of regular contractions and a transplant score (0-5, worst-best, respectively) employing the following criteria: contraction (poor=0, average=1, vigorous=2), tissue turgor (hard=0, average=1, soft=2), and color (dusky=0, pink=1).
Graft survival data was analyzed by contingency analysis (chi-square). Transplant scores, microsphere perfusion, myeloperoxidase, NO synthase, and platelet serotonin release data were analyzed using ANOVA for unpaired variables with the Tukey test used to discriminate significant differences between group means. Values are expressed as means ±SEM, with a p<0.05 considered statistically significant.

[4] = tested on: nitric oxide production in heart; assay: direct measurement of coronary vascular and endocardial NO with porphyrinic microsensor; design: species or system rat
Procedure: Direct measurement of coronary vascular and endocardial nitric oxide synthesis were made with a porphyrinic microsensor^13 using differential pulse voltammetry or amperometry. Rat hearts were explanted and preserved as described above, and studied fresh (no preservation/transplantation) or after hypothermic preservation in lactated Ringer's (LR) solution, heterotopic transplantation, and 10 minutes of reperfusion. The coronary vasculature was flushed free of blood with LR followed by 4 ml of LR supplemented with L-Arg (2 mM) and bradykinin ([…], Sigma), which was recycled (1 ml/min) through the coronary vasculature by flushing down the cross-clamped aortic root. Aliquots of perfusate were immediately transferred to an anaerobic environment for measurements and compared to an aqueous nitric oxide reference. Differential pulse voltammograms were obtained using a sensor (working electrode), saturated calomel electrode reference, and platinum wire-auxiliary electrode, with a pulse amplitude of 40 mV. Endocardial NO was measured by implanting the sensor in the septal endocardium of a freshly explanted or preserved/transplanted heart, and after the baseline stabilization, […] bradykinin was applied and NO release continuously monitored by amperometry at constant potential of 0.63 V.

[5] = tested on: cGMP-dependent protein kinase; settings: relative to cGMP; cited from earlier work
[6] = tested on: heart; assay: heterotopic rat cardiac transplant, cAMP series, graft survival/score; format: in vivo, rat (male Sprague-Dawley); settings: 12 h in LR
Excerpt: Preservation solutions included lactated Ringer's (LR) solution Baxter, Edison, N.J.), or LR supplemented with rolipram ZK 62 711, Schering AG, Berlin, Germany), indolidan LY195115, Lilly Research Laboratories, Indianapolis, Ind.), sodium butyrate, 8-bromoadenosine, 8-bromoadenosine 3',5'monophosphate (8-Br-cAMP; Sigma Chemical Co., St. Louis, Mo.), the Rp -isomer of adenosine 3',5'monophosphorothioate (Rp -cAMPS; Biolog, La Jolla, Calif.), the Sp isomer of adenosine 3',5'monophosphorothioate (Sp -cAMPS; Biolog), and N^6,O^2' -dibutyryl adenosine 3',5'monophosphate sodium (db-cAMP; Aldrich, Milwaukee, Wis.). Components were combined within 4 hrs of donor cardiectomy, and preservation solutions were kept at 4° C. University of Wisconsin solution (UW)(2-4 was purchased from Dupont (Wilmington, Del.).
Donor Cardiectomy. Male Sprague-Dawley rats (350-450 grams, Camm Research, Wayne, N.J.) were anesthetized, heparinized (1000 units of heparin given intravenously), and the donor heart removed in the following manner; a midline incision was performed, followed by rapid cardioplegic arrest with 5 ml of cold (4° C.), high potassium solution (NACl, 0.9%, and KCl, 40 mEq/L). The heart was maintained at 4° C. throughout the harvest procedure by the application of a cold saline soaked gauze over its surface. […] The aortic root was flushed with ≈15 ml of the cold preservation solution until the coronary arteries became visibly clear, and the heart remained in the cold storage solution for the indicated duration until the time of transplantation.
Heterotopic Transplant. The same breed/size of rat was used, and similarly anesthetized, but not given heparin. A midline abdominal incision was made, and the infrarenal aorta and vena cava were occluded with a side-biting vascular clamp and longitudinal incisions were made in each vessel. The donor heart was removed from the preservation solution and kept moist with saline-soaked gauze. […] Blood flow was restored to the graft (by removal of the clamp) exactly one hour after removal from the cold preservation solution. […] Ten minutes after removal of the cross-clamp, an electrocardiogram was taken (Grass Polygraph, Quincy, Mass.) and the heart was judged by the same blinded investigators throughout based on the presence/absence of regular contractions and a transplant score (0-5, worst-best, respectively) employing the following criteria: contraction (poor=0, average=1, vigorous=2), tissue turgor (hard=0, average=1, soft=2), and color (dusky=0, pink=1). […] The heterotopic cardiac transplant experiments performed in these studies were done by a single surgeon after establishment of this model and acquisition of surgical expertise, with control and experimental groups interspersed throughout the study period to prevent a time-dependent bias pertaining to surgical skills.
Statistics. Graft survival data and transplant scores were analyzed using the Kruskal-Wallis non-parametric analysis of variance (38). Comparisons of individual treatments were performed using the procedure described by Dunn (39). In addition, the effect of db-cAMP on the time-course of graft failure was quantified by multivariate logistic regression. Graft myeloperoxidase data, microsphere data, and cAMP/adenylate cyclase/phosphodiesterase data from experiments with cultured vascular smooth muscle cells were analyzed by t-tests when 2 treatments were performed or by analysis of variance when 3 or more treatments were performed. In the latter case, post-hoc comparison of treatment groups were tested using Tukey's procedure. Values are expressed as means ±SEM, with a p <0.05 considered statistically significant.

[7] = tested on: lung; assay: orthotopic rat left lung transplantation, cGMP series (hemodynamics, oxygenation, recipient survival); format: in vivo, rat (male Lewis); settings: 6 h in EC
Procedure: Orthotopic rat left lung transplantation was accomplished using inbred male Lewis rats (250-300 gms), using a modification of a previously described technique^29. The donor rat was anesthetized and heparinized (500 U intravenously), and endotracheal intubation was performed by inserting a 16 gauge angiocatheter into the trachea using blunt cervical dissection, after which the rat was ventilated with room air at a constant rate (100 breaths/minute) and tidal volume (2.5 ml), using a Harvard rodent ventilator. […] The pulmonary artery (PA) and pulmonary vein (PV) were divided, the bronchus ligated with the lung partially inflated and then divided, and the lung removed. The vascular stumps were each pulled through a small plastic cylinder, and a lip of vessel was turned back around the edge and secured in place with a suture to form a "cuff." A small plastic cylinder was inserted into the bronchial stump and secured, and the lung was then wrapped in gauze and submerged in cold preservation solution for the desired interval.
The recipient rat (gender/size/strain-matched) was similarly anesthetized and intubated (ventilated with 100% oxygen), but not heparinized. A left thoracotomy was performed, the hilum was dissected, and the left bronchus, PA, and PV were isolated, cross-clamped, divided and the native lung was removed from the field. The PA and PV stumps were rinsed with heparinized saline to remove any clot. The donor lung was brought onto the surgical field, and the cylinder (bronchus) and cuffs (PA and PV) were connected rapidly to their respective structures with a simple staying suture. This cuff technique permitted rapid approximation of donor and recipient tissues with no contact of a foreign substance with the luminal vascular surface. The hilar cross-clamp was released, re-establishing blood flow, and the bronchus tie was removed, enabling gas exchange. A snare was then passed around the right PA, and a Millar catheter (2F; Millar Instruments,Houston, Tex.) was introduced through a small hole (surrounded by a pursestring) into the main PA; similarly, a Millar catheter was introduced into the left atrium (LA). A flow probe (Transonics, Ithaca, N.Y.) was then placed around the main PA. Arterial blood gas sampling performed via the left femoral artery.
Online hemodynamic monitoring was accomplished using MacLab and a Macintosh IIci computer. The hemodynamic parameters that were measured included PA pressure (mm Hg), blood flow (ml/min), LA pressure (mm Hg), as well as arterial oxygen tension (mm Hg) during inspiration of 100% oxygen; pO2 was analyzed with a model ABL-2 dissolved gas analyzer (Radiometer, Copenhagen, Denmark). Pulmonary vascular resistances (PVRs) were calculated as [mean PA pressure-LA pressure]/PA flow. The native lung supported the recipient during the period of warm ischemia (the period during which the donor lung was removed from cold preservation until the time of reperfusion, <10 min. in all instances), but immediately following rapid hemodynamic instrumentation and acquisition of baseline measurements, the native (right) PA was then ligated, and serial measurements (representative solely of the transplanted lung) were taken every five minutes for 30 minutes. Because the native lung was effectively removed from the circulation by ligation of the right PA, these measurements represent function of the transplanted lung. Recipient death was identified by the cessation of cardiac mechanical activity observed through the thoracotomy.
Preservation solutions were freshly made and coded by a technician not otherwise involved in the experiments, according to a general plan which included both control and experimental groups. […]

[8] = tested on: nitric oxide at lung surface; assay: in vivo pulmonary NO with porphyrinic microsensor; design: species or system rat; settings: during continued reperfusion; A23187 9.5 μM
Procedure: Measurements of nitric oxide concentrations in vivo were performed with a two electrode system using a porphyrinic sensor as a working electrode and a platinum wire as an auxiliary/reference electrode. The porphyrinic sensor with a flexible base was lowered onto the exposed surface of the lung using a micromanipulator. A small piezoelectric signal (mechanically generated current) was used to indicate that the sensor had made contact with the tissue surface. NO measurements were begun once the flexible sensor assumed an L-shaped configuration on the tissue surface and the platinum wire was connected to adjacent tissue. Continous amperometric (current-time) measurements were obtained at a constant potential of 0.68 V, during the period of warm ischemia (after the lung was sewn in place but not yet reperfused) and continously as the vascular cross-clamp was released and reperfusion initiated. Topical application of the calcium ionophore (A23187, 9.5 μM; Sigma) and superoxide dismutase (100 U/ml; Sigma) was applied as monitoring was continued.

N=C(N)NCCC[C@H](N)C(=O)O [L-Arg, L-arginine]
effect in cardiac ischemia models [1]: improve vascular function and outcome | graft blood flow [2]: enhanced blood flow | effect on graft preservation (words) [3]: enhanced preservation | effect on graft preservation (words) ([3]; listed as L-arginine): enhanced graft survival

N=c1c[n+](N2CCOCC2)[n-]o1 [SIN-1]
effect in cardiac ischemia models [1]: improve vascular function and outcome

O=NO [acidified sodium nitrite, sodium nitrite]
effect in cardiac ischemia models [1]: blunt myocardial injury and neutrophil accumulation during reperfusion; also recorded: improve vascular function and outcome

CNC(=N)NCCC[C@H](N)C(=O)O [L-NMMA, N^G -monomethyl-L-arginine]
graft blood flow [2]: decreased blood flow | effect on graft preservation (words) [3]: blocked the beneficial effects of L-Arg | graft survival ([3]; NTG 0.1 mg/ml where added): 0% | effect on graft preservation (words) ([3]; listed as N^G -monomethyl-L-arginine): no survival of cardiac grafts; also recorded: poor preservation | effect on NO levels ([4]; transplanted hearts): blocked further NO production

N=C(NCCC[C@H](N)C(=O)O)N[N+](=O)[O-] [N^ω -nitro-L-arginine]
effect on graft preservation (words) [3]: blocked the beneficial effects of L-Arg

Nc1ncnc2c1nc(Br)n2[C@@H]1O[C@@H]2COP(=O)(O)O[C@H]2[C@H]1O [8-Br-cAMP, 8-bromoadenosine 3'5'monophosphate]
fold less potent than cGMP in activating cGMP-dependent protein kinase [5]: 53 fold | concentration for optimal/maximal preservation [6]: 0.1 mM | effect on cardiac preservation [6]: prolonged graft survival | graft survival ([6]; 8-Br-cAMP 0.1 mM): 100%

NC(N)=NCCC[C@H](NC(=O)[C@H](Cc1ccccc1)NC(=O)[C@@H]1CCCN1C(=O)[C@H](CO)NC(=O)[C@H](Cc1ccccc1)NC(=O)CNC(=O)[C@@H]1CCCN1C(=O)[C@@H]1CCCN1C(=O)[C@@H](N)CCCN=C(N)N)C(=O)O [bradykinin] (H-RPPGFSPFR-OH)
endocardial NO plateau following bradykinin challenge ([4]; freshly explanted heart): 0.67 ± 0.06 µM | endocardial NO plateau following bradykinin challenge ([4]; preserved (38 hrs) heart): 0.17 ± 0.05 µM

Nc1nc2c(nc(Br)n2[C@@H]2O[C@H](CO)[C@@H](O)[C@H]2O)c(=O)[nH]1 [8-Br-guanosine]
effect on lung preservation [7]: without effect

CC1(C)C(=O)Nc2ccc(C3=NNC(=O)CC3)cc21 [indolidan]
effect on cardiac preservation [6]: uniformly enhanced preservation

Nc1nc2c(nc(Br)n2[C@@H]2O[C@H](COP(=O)(O)O)[C@@H](O)[C@H]2O)c(=O)[nH]1 [8-bromoguanosine 5'monophosphate]
effect on lung preservation [7]: without effect

CNc1ccc2oc(C[C@H]3O[C@@]4(CC[C@H]3C)O[C@H]([C@H](C)C(=O)c3ccc[nH]3)[C@H](C)C[C@H]4C)nc2c1C(=O)O [A23187]
effect on decline in NO [8]: did not alter the decline in NO

CCCC(=O)Nc1ncnc2c1ncn2[C@@H]1O[C@@H]2COP(=O)(O)O[C@H]2[C@H]1O [mb-cAMP, N^6 -monobutyryladenosine 3'5'monophosphate]
fold less potent than cGMP in activating cGMP-dependent protein kinase [5]: 313 fold
